From US20170190744A1 (Vicuron Pharmaceuticals, Inc., priority 2015, published 2017)
Values after ≈ are worked out from the molar mass of the structure shown. Values joined by “and” are separate entries in the source; they are usually repeats but may differ in a detail not shown here. Identical values can stand only once.

Experiments:
[1] = Plasma pharmacokinetics in thigh-infected neutropenic mice; conditions: 2.5-80 mg/kg intraperitoneal
Description: Neutropenia in this and all other studies was produced by injections of cyclophosphamide, 150 mg/kg 4 days prior to study, 100 mg/kg 1 day prior to study and 100 mg/kg every 48 h after start of infection until end of study. […] Doses of 2.5, 5, 10, 20, 40, and 80 mg/kg were studied. Drug was administered by intraperitoneal injection of 0.2 ml volume. Blood was removed from groups of three mice by retroorbital aspiration into heparinized capillary tubes at 0.5, 1, 2, 4, 6, 24, 48, 72, and 96 hours after dosing. […] AUC was calculated by the trapezoidal rule from mean concentrations.

[2] = system: S. aureus; assay: MIC of study organisms (NCCLS microdilution); format: cell-based; conditions: for MBC: Staphylococcus aureus
Description: (§1) MICs were determined in MHB by standard NCCLS microdilution techniques. […] All MICs were performed at least in duplicate.

[3] = system: S. pneumoniae; assay: MIC of study organisms (NCCLS microdilution); format: cell-based; conditions: five pneumococcal organisms
Description: as §1

[4] = Pharmacokinetics in renal impairment and ESRD (VER001-3, VER001-11, VER001-13)
Description: Clinical Study VER001-13 examined subjects with mild and moderate renal impairment and Clinical Study VER001-11 examined subjects with severe renal impairment and subjects with end-stage renal disease (ESRD). Matched control subjects were enrolled in all studies. […] Subjects with ESRD were dependent on dialysis through the course of the study (3 times weekly).

[5] = system: Gram-positive isolates, including MRSA; assay: Dalbavancin MIC of baseline Gram-positive pathogens (SSTI trial); format: cell-based; conditions: for Dalbavancin MIC, Miscellaneous Streptococcus and nontypeable strains: baseline isolates, MITT
Text: The most common pathogen was S. aureus.

[6] = system: skin and soft tissue infections (SSTI); assay: Phase II trial in deep skin and soft tissue infections: clinical response; format: in vivo, human; conditions: for clinical success rate at FU: clinically-evaluable population; for clinical success rate, deep or complicated SSTI at baseline: exploratory subanalysis
Description: This randomized, controlled study evaluated the safety and efficacy of two dose regimens of dalbavancin.
There were 62 patients randomized into the study; all received at least one dose of study medication. Four study populations were evaluated for safety and efficacy and were defined as follows: The intent-to-treat (ITT) population included all patients who received at least one dose of study drug (all randomized study subjects).
The effectiveness of the three treatment regimens was determined by assessing the patients' clinical response and the documented or presumed microbiological responses. The primary efficacy endpoint was clinical response at the follow-up visit for the clinically evaluable population. Clinical response, for both EOT and FU visits, was categorized as success (cure or improvement) or failure (including indeterminate results). Patients classified as successes must not have received additional systemic antibacterial treatment for their infection. Failure was defined as persistence of one or more local or systemic signs and symptoms of SSTI such that treatment with new or additional systemic antibacterial agents was required for the SSTI.

[7] = system: 3797 S aureus clin. Isolate GISA; assay: MIC (microbiological activity); format: cell-based
[8] = in vivo
Description: Safety was evaluated by the collection and analysis of data on adverse events (AEs), clinical laboratory tests, physical examinations, vital signs, and ECGs.

[9] = Pharmacokinetics and renal excretion in healthy subjects; format: in vivo, human; conditions: single 1000 mg IV
Description: Blood samples were drawn into heparinized tubes and centrifuged. Plasma was separated and stored frozen at −20° C. until time of assay. Plasma and urine samples were assayed for dalbavancin using validated LC/MS/MS methods. […] The peak concentration (Cmax) values were obtained directly from the observed data. The area under the plasma concentration-time curve (AUC) was calculated using the linear trapezoidal rule. Clearance (CL) was computed as dose/AUC. The elimination half life (t1/2) was estimated by linear regression of the log-linear portion of the log concentration versus time curve. Estimates of the volume of distribution (VZ) was calculated using the regression parameters, while the volume of distribution at steady state (Vss) was calculated from the area under the first moment curve (AUMC) multiplied by the dose and divided by AUC. The cumulative amount of dalbavancin excreted in urine was determined as the integrand of the urine excretion rate (AURC). CLR, or renal clearance, was calculated as the ratio: CLR=AURC/AUC.

[10] = system: S. aureus; assay: Phase II SSTI trial: microbiologic response, S. aureus; format: in vivo, human
Description: Microbiological outcome, a secondary efficacy variable, was assessed in the subpopulation of patients who had microbiologically documented SSTI (i.e., at least one identified baseline pathogen). A microbiologic response was assessed for each Gram-positive pathogen identified at baseline (i.e., eradication, presumed eradication, persistence, presumed persistence). For patients for whom follow-up cultures were not performed, the microbiologic responses for baseline pathogens were presumed on the basis of the clinical response. Microbiologic response by patient at the EOT and FU visits was graded as success (i.e., all Gram-positive organisms eradicated or presumed eradicated) or failure (i.e., at least one Gram-positive organism persisted or presumed to have persisted, multiple pathogens with partial eradication). At both the EOT and FU visits, colonization and superinfection were assessed. At the FU visit, a patient's bacteriological response could also include recurrence.

[11] = system: S. aureus; assay: MIC of study organisms (NCCLS microdilution); format: cell-based
[12] = system: human hepatic microsomes; format: in vitro ADME
[13] = both, human, in vivo
Description: Male and female subjects between ages 18 and 80 were eligible for enrollment. Subjects had to be within −10% to +50% of ideal body weight for their sex, height, and body frame.
The peak concentrations (Cmax) were obtained directly from the observed data. The area under the plasma concentration-time curve (AUC) were calculated using the linear trapezoidal rule.

[14] = Pharmacokinetics in hepatic impairment (VER001-12); format: in vivo, human; conditions: 1000 mg Day 1 and 500 mg Day 8, Mean (±SD)
Description: The study enrolled otherwise healthy subjects with mild, moderate, or severe hepatic impairment (Child-Pugh scores 5 to 6, 7 to 9, and 10 to 15, respectively) and matched control subjects with normal hepatic function.

[15] = system: S. aureus; assay: Murine thigh-infection model; format: in vivo, mice; conditions: for 1 Log Kill mg/kg/72 h / 2 Log Kill mg/kg/72 h: q 72 h regimen; for 1 log kill dose: SA29213, total dose over 6 days
Description: Each point represents the mean of 4 thighs. Five dose levels, ranging 16-fold were used.
Five different doses (two-fold increases) were used. Study against S. aureus utilized total dose (mg/kg/6 d) levels ranging from 30 to 480 mg/kg/6 d. […] Each point represents the mean of 4 thighs.
Each point represents the mean of four thighs.

## CN[C@H]1C(=O)N[C@@H]2Cc3ccc(cc3)Oc3cc4cc(c3O[C@@H]3O[C@H](C(=O)O)[C@@H](O)[C@H](O)[C@H]3NC(=O)CCCCCCCCC(C)C)Oc3ccc(cc3Cl)[C@@H](O)[C@@H]3NC(=O)[C@H](NC(=O)[C@@H]4NC(=O)[C@@H](NC2=O)c2cc(cc(O)c2Cl)Oc2cc1ccc2O)c1ccc(O)c(c1)-c1c(O[C@H]2O[C@H](CO)[C@@H](O)[C@H](O)[C@@H]2O)cc(O)cc1[C@@H](C(=O)NCCCN(C)C)NC3=O [Dalbavancin]
[1]
  half-life: 0.317 to 0.546 days
[2]; S. aureus strain 307109
  MBC: 0.12 µg/mL
[2]; SA31005
  MBC: 0.12 µg/mL
[2]; six S. aureus isolates
  MIC range: 0.06 to 0.12 µg/mL
[3]
  MIC range: 0.004 to 0.03 µg/mL
[4]; ESRD Postdialysis, VER001-11, 500 mg
  t1/2: 14.5 days
[4]; ESRD Predialysis, VER001-11, 500 mg
  t1/2: 15.7 days
[4]; Mild Renal Impairment, VER001-13, 1000 mg
  t1/2: 16.2 days
[4]; Moderate Renal Impairment, VER001-13, 1000 mg
  t1/2: 18 days
[4]; Normal Renal Function, VER001-2, 1120 mg
  t1/2: 6.21 days
[4]; Normal Renal Function, VER001-11, 500 mg
  t1/2: 13.9 days
[4]; Normal Renal Function, VER001-13, 1000 mg
  t1/2: 17.4 days
[4]; Severe Renal Impairment, VER001-11, 500 mg
  t1/2: 18.9 days
[4]; Severe Renal Impairment, VER001-11, 1000 mg
  t1/2: 19.5 days
[4]; subjects with severe renal impairment (VER001-11)
  increase in concentrations through the first week post-dose vs normal renal function: 40%
[5]; baseline isolates of the SSTI trial
  MICs against Gram-positive isolates, including MRSA (range): 0.016 to 0.25 mg/L
[5]; Single dose Dalbavancin (1100 mg) arm
  Dalbavancin MIC, Miscellaneous Streptococcus and nontypeable strains: (0.016)
[5]; Two-dose Dalbavancin (1000/500 mg) arm
  Dalbavancin MIC, Miscellaneous Streptococcus and nontypeable strains: (0.016)
[6]; single-dose dalbavancin (1100 mg IV day 1)
  clinical success rate at FU: 61.5%
[6]; two-dose dalbavancin (1 g IV day 1, 500 mg IV day 8)
  clinical success rate at FU: 94.1% and 94%
[6]; single-dose dalbavancin
  clinical success rate, deep or complicated SSTI at baseline: 58.3%
[6]; two-dose dalbavancin
  clinical success rate, deep or complicated SSTI at baseline: 93.8%
[7]
  MIC: 2 µg/mL (≈ 1.1 µM)
[8]; human
  average difference of effect on QTc values versus vancomycin group: 7 ms
[8]
  impact on heart rate, atrioventricular conduction or intra-ventricular conduction: did not exhibit any impact
[9]
  t1/2: 9 to 12 days
[10]; single-dose dalbavancin
  S. aureus eradication rate at FU: 50%
[10]; two-dose dalbavancin
  S. aureus eradication rate at FU: 90%
[11]; S. aureus, MBC higher than MIC
  MBC relative to MIC: 2 to 4 fold
[11]; SA25923
  MBC: 0.50 µg/mL
[12]
  effect on metabolism of marker substrates: did not affect the metabolism of marker substrates
[13]; 500 mg
  AUC: 24376 ± 6615 µg·h/mL
[13]; 1000 mg
  AUC14: ~22000′ mg · h/L
  AUC42: 23137 ± 3326 µg·h/mL
[14]; Mild Hepatic Impairment
  t1/2: 323 (27) h
[14]; Moderate Hepatic Impairment
  t1/2: 320 (24) h
[14]; Normal Hepatic Function
  t1/2: 321 (24) h
[14]; Severe Hepatic Impairment
  t1/2: 322 (68) h
[15]; MRSA, 6 days of therapy
  1 Log Kill mg/kg/72 h: 62 mg/kg/72 h
  2 Log Kill mg/kg/72 h: 85 mg/kg/72 h
[15]; Mean ± SD of S. aureus strains
  1 Log Kill mg/kg/72 h: 94 ± 46 mg/kg/72 h
  2 Log Kill mg/kg/72 h: 120 ± 54 mg/kg/72 h
[15]; q 36 h
  1 log kill dose: 36 mg/kg
[15]; q 72 h
  1 log kill dose: 31 mg/kg
[15]; SA33591, 6 days of therapy
  1 Log Kill mg/kg/72 h: 93 mg/kg/72 h
[15]; SA307109, 6 days of therapy
  1 Log Kill mg/kg/72 h: 34 mg/kg/72 h
  2 Log Kill mg/kg/72 h: 37 mg/kg/72 h
[15]; SA Smith, 6 days of therapy
  1 Log Kill mg/kg/72 h: 95 mg/kg/72 h
[15]; all strains
  drop in cfu over the 6 day study: > 4 log10
[15]; net static effect, 1 or 2 log kill
  free drug AUC/MIC over the 6 days of therapy required for efficacy: ~1000
